Values of other authors, collected in EP4260848A1, “PHARMACEUTICAL COMPOSITION FOR SOLID DOSAGE FORM CONTAINING NILOTINIB AND PROCESS FOR ITS PREPARATION” (Lotus Pharmaceutical Co., Ltd., priority 2022, dated 2023).
Counter-ions that a name gives are not always drawn.

What was measured:
[1] = not given; remark: listed apart in the source

Row | aqueous solubility (all solid forms (anhydrates, hydrates, solvates)) | pKa1 ([1]; determined) | pKa2 ([1]; estimated) | solubility in aqueous solutions (dependence on pH) | Structure (SMILES)
1 | poor aqueous solubility | – | – | – | Cc1cn(-c2cc(NC(=O)c3ccc(C)c(Nc4nccc(-c5cccnc5)n4)c3)cc(C(F)(F)F)c2)cn1 [Nilotinib hydrochloride]
2 | – | 2.1 | 5.4 | decreases with increasing pH | Cc1cn(-c2cc(NC(=O)c3ccc(C)c(Nc4nccc(-c5cccnc5)n4)c3)cc(C(F)(F)F)c2)cn1 [Nilotinib, 4-methyl-N-[3-(4-methylimidazol-1-yl)-5-(trifluoromethyl)phenyl]-3-[(4-pyridin-3-ylpyrimidin-2-yl)amino]benzamide]
